According to ChEMBL document CHEMBL1124855, “Synthesis and muscarinic activities of 1,2,4-thiadiazoles” (J Med Chem, 1990):

How the values were obtained:
[1] = target: T1, Muscarinic acetylcholine receptor (Rattus norvegicus) (UniProt P08482+P08483+P08485+P08911+P10980)
Description: Ability to displace radioligand [3H]N-methylscopolamine (NMS) at muscarinic acetylcholine receptor from rat cortical homogenate.

[2] = target: T1, Muscarinic acetylcholine receptor (Rattus norvegicus); remark: listed apart in the source
Description: Affinity to displace radioligand [3H]oxotremorine (OXO) at muscarinic acetylcholine receptor from rat cortical homogenate.

[3] = system: Muscarinic acetylcholine receptor (Rattus norvegicus); test: Ratio of [3H]N-methylscopolamine (NMS) to [3H]oxotremorine (OXO) at Muscarinic acetylcholine receptor from rat cortical homogenate
[4] = target: T1, Muscarinic acetylcholine receptor (Rattus norvegicus); test: Ability to displace radioligand [3H]N-methylscopolamine (NMS) at Muscarinic acetylcholine receptor from rat cortical homogenate

Row | Ratio [3] | Compound | K app [1] | K app [2] | K app [4]
1 | – | COc1nsc([C@H]2CN3CCC2C3)n1 (stereo not given in full) | 1.8 µM | 0.017 µM | –
2 | – | CN(C)c1nsc([C@H]2CN3CCC2C3)n1 (stereo not given in full) | 0.99 µM | 0.098 µM | –
3 | – | Cc1nsc(C2=CCCN(C)C2)n1 | 1.4 µM | 0.0089 µM | –
4 | – | CN(C)c1nsc(C2CN3CCC2CC3)n1 (stereo not given) | 0.14 µM | 0.023 µM | –
5 | – | Cc1nsc([C@H]2CN3CCC2C3)n1 (stereo not given in full) | 0.37 µM | 0.00045 µM | –
6 | – | CN(C)c1nsc([C@@H]2CN3CCC2C3)n1 (stereo not given in full) | 0.84 µM | 0.062 µM | –
7 | 390 | Cc1noc(C2=CCCN(C)C2)n1 | – | – | –
8 | – | CC(C)c1nsc([C@@H]2CN3CCC2C3)n1 (stereo not given in full) | 0.29 µM | 0.041 µM | –
9 | – | CC(C)c1nsc([C@H]2CN3CCC2C3)n1 (stereo not given in full) | 0.4 µM | 0.055 µM | –
10 | – | C1=C(c2ncns2)CNCC1 | 11 µM | 0.014 µM | –
11 | – | Cc1nsc([C@@H]2CN3CCC2C3)n1 (stereo not given in full) | 0.62 µM | 0.00062 µM | –
12 | – | COC(=O)C1=CCCNC1 | 20 µM | 0.017 µM | –
13 | – | CCc1nsc(C2CN3CCC2CC3)n1 (stereo not given) | 0.082 µM | 0.009 µM | –
14 | – | c1ccc(Cc2nsc([C@@H]3CN4CCC3C4)n2)cc1 (stereo not given in full) | 0.34 µM | 0.074 µM | –
15 | 1200 | CN1CCC=C(c2ncno2)C1 | 8.9 µM | 0.0077 µM | –
16 | – | CCc1nsc([C@H]2CN3CCC2C3)n1 (stereo not given in full) | 0.51 µM | 0.033 µM | –
17 | – | C1CC1c1nsc(C2CN3CCC2CC3)n1 (stereo not given) | 0.023 µM | 0.0028 µM | –
18 | – | c1ccc(Cc2nsc(C3CN4CCC3CC4)n2)cc1 (stereo not given) | 0.082 µM | 0.014 µM | –

Row | Ratio [3] | Compound | K app [1] | K app [2] | K app [4]
19 | – | Cc1nsc(C2=CCCNC2)n1 | 0.95 µM | 0.0021 µM | –
20 | – | C1CC1c1nsc([C@H]2CN3CCC2C3)n1 (stereo not given in full) | 0.16 µM | 0.019 µM | –
21 | – | C1CC1c1nsc([C@@H]2CN3CCC2C3)n1 (stereo not given in full) | 0.21 µM | 0.004 µM | –
22 | – | CC(C)c1nsc(C2CN3CCC2CC3)n1 (stereo not given) | 0.033 µM | 0.0031 µM | –
23 | – | COc1nsc(C2CN3CCC2CC3)n1 (stereo not given) | 0.9 µM | 0.033 µM | –
24 | – | c1nsc([C@H]2CN3CCC2C3)n1 (stereo not given in full) | 1.4 µM | 0.0013 µM | –
25 | – | c1nsc(C2CN3CCC2CC3)n1 (stereo not given) | 3.3 µM | 0.0077 µM | –
26 | – | Cc1nsc(C2CN3CCC2CC3)n1 (stereo not given) | 0.36 µM | 0.00078 µM | –
27 | – | CCc1nsc([C@@H]2CN3CCC2C3)n1 (stereo not given in full) | 0.29 µM | 0.005 µM | –
28 | – | OC(c1ccccc1)(c1ccccc1)c1nsc(C2CN3CCC2CC3)n1 (stereo not given) | 0.0002 µM | 6.8e-05 µM | –
29 | – | CSc1nsc(C2CN3CCC2CC3)n1 (stereo not given) | 0.12 µM | 0.012 µM | –
30 | – | CN1CCC=C(c2ncns2)C1 | 11 µM | 0.027 µM | –
31 | – | Cc1nsc(C2CCN(C)C2)n1 (stereo not given) | 36 µM | 0.15 µM | –
32 | – | c1ccc(Cc2nsc([C@H]3CN4CCC3C4)n2)cc1 (stereo not given in full) | 0.54 µM | 0.061 µM | –
33 | – | c1nsc([C@@H]2CN3CCC2C3)n1 (stereo not given in full) | – | 0.0056 µM | 6.4 µM
34 | – | COc1nsc([C@@H]2CN3CCC2C3)n1 (stereo not given in full) | 2 µM | 0.006 µM | –
35 | – | Cc1nsc(C2CCNC2)n1 (stereo not given) | 18 µM | 0.054 µM | –
